The values that follow come from US20220364132A1, “METHOD FOR FORMING A STORAGE STABLE H[…] A LIGNO[…]” (Sekab E- Technology AB, priority 2019, published 2022).

In the assay the test system is Lactobacillus. The assay is described as follows: Bacterial contamination in a non-separated (non-detoxified) spruce hydrolysate, lactic acid by HPLC. The format is cell-based. Particulars: FIG. 2. Here is the method: Non-detoxified spruce hydrolysate (with added 2 g/l yeast extract; 0.5% sodium phosphate; 0.5 g/l diammonium phosphate; 2 g/l peptone and diluted with water to 30 g/l glucose) was filter sterilized and used to represent feed media. An inoculum was prepared using MRS media and the same contaminated sample as used in previous experiments, and was incubated at 37° C. overnight (16 hours). Sodium sulfite was added at concentrations of 0 mM, 5 mM, 10 mM, 20 mM and 40 mM, respectively, to 25 ml serum bottles with 22.5 ml of the feed media. After inoculation, the bottles were placed on a multiple magnetic stirring plate at room temperature, with samples taken periodically and analyzed using HPLC.
The hydrolysate used may represent a feed stream where no separation of the pretreatment liquid and solid component has taken place. In other words, hydrolysis and fermentation inhibitors are still present in the feed stream.

Each structure is given as a SMILES string.

For `O=S([O-])[O-].[Na+].[Na+]` [sodium sulfite], where the note is “5 to 40 mM sodium sulfite, room temperature”, the “antimicrobial effect on the hydrolysate” value is listed as “no antimicrobial effect”. For the same molecule, for the setting “sodium sulfite added (5 to 40 mM)”, the bacterial growth entry was “increased bacterial growth”.
